Laboratory results as given in US20240124427A1, “HYDROXYHETEROCYCLOALKANE-CARBAMOYL DERIVATIVES” (Idorsia Pharmaceuticals Ltd, priority 2021, published 2024).

target: human Gal-3 (hGal-3) (Homo sapiens (Human), UniProt P17931); assay: Competitive binding assay: biotinylated hGal-3 binding to microplate-adsorbed asialofetuin (ASF); conditions: Activity on hGal-3; mean values of several measurements; mixture of diastereomers measured where not separated
Description: The inhibitory activity of compounds is determined in competitive binding assays. This spectrophotometric assay measures the binding of biotinylated human Gal-3 (hGal-3) or human Gal-1 (hGal-1), respectively, to a microplate-adsorbed glycoprotein, asialofetuin (ASF) (Proc Natl Acad Sci USA. 2013 Mar 26;110(13):5052-7.). Alternatively, and preferably, a human Gal-1 version in which all six cysteines are substituted by serines may be used.
Briefly, compounds are serially diluted in DMSO (working dilutions).
Plates are incubated for 3 hours at 4° C., then washed with cold assay buffer (3×50 uL), incubated for 1 hour with 25 μL/well of a streptavidin-peroxidase solution (diluted in assay buffer to 80 ng/mL) at 4° C., followed by further washing steps with assay buffer (3×50 uL). Finally, 25 μL/well of ABTS substrate is added.
The calculated IC50 values may fluctuate depending on the daily assay performance. Fluctuations of this kind are known to those skilled in the art. IC50 values from several measurements are given as mean values.

Chain of human Gal-3 (hGal-3) (P17931 whole entry): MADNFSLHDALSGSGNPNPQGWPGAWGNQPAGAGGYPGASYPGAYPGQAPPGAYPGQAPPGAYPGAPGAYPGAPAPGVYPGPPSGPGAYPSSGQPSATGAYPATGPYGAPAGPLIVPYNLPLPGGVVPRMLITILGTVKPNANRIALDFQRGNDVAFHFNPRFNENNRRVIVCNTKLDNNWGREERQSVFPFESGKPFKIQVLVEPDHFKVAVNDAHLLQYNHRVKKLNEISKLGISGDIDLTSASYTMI

In order of falling IC50:
1. CO[C@@H]1[C@@H](n2cc(-c3cc(F)c(F)c(F)c3)nn2)[C@@H](O)[C@@H](CO)O[C@H]1C(=O)N(c1cccc(Cl)c1)[C@@H]1COC[C@H]1O [Example 30, (2R,3R,4S,5R,6R)-N-(3-chlorophenyl)-5-hydroxy-6-(hydroxymethyl)-N-((3R,4S)-4-hydroxytetrahydrofuran-3-yl)-3-methoxy-4-(4-(3,4,5-trifluorophenyl)-1H-1,2,3-triazol-1-yl)tetrahydro-2H-pyran-2-carboxamide]  235 nM
2. CO[C@@H]1[C@@H](n2cc(-c3cc(F)c(F)c(F)c3)nn2)[C@@H](O)[C@@H](CO)O[C@H]1C(=O)N(c1cc(C)cc(Br)c1)[C@@H]1COC[C@H]1O [Example 37, (2R,3R,4S,5R,6R)-N-(3-bromo-5-methylphenyl)-5-hydroxy-6-(hydroxymethyl)-N-((3R,4S)-4-hydroxytetrahydrofuran-3-yl)-3-methoxy-4-(4-(3,4,5-trifluorophenyl)-1H-1,2,3-triazol-1-yl)tetrahydro-2H-pyran-2-carboxamide]  186 nM
3. CO[C@@H]1[C@@H](n2cc(-c3ccc(Cl)c(Cl)c3)nn2)[C@@H](O)[C@@H](CO)O[C@H]1C(=O)N(c1cc(Cl)cc(Cl)c1)[C@H]1COC[C@@H]1O [Example 26, (2R,3R,4S,5R,6R)-N-(3,5-dichlorophenyl)-4-(4-(3,4-dichlorophenyl)-1H-1,2,3-triazol-1-yl)-5-hydroxy-6-(hydroxymethyl)-N-((3S,4R)-4-hydroxytetrahydrofuran-3-yl)-3-methoxytetrahydro-2H-pyran-2-carboxamide]  162 nM
4. CO[C@@H]1[C@@H](n2cc(-c3ccc(Cl)c(Cl)c3)nn2)[C@@H](O)[C@@H](CO)O[C@H]1C(=O)N(c1cc(C)cc(Br)c1)[C@H]1COC[C@@H]1O [Example 29, (2R,3R,4S,5R,6R)-N-(3-bromo-5-methylphenyl)-4-(4-(3,4-dichlorophenyl)-1H-1,2,3-triazol-1-yl)-5-hydroxy-6-(hydroxymethyl)-N-((3S,4R)-4-hydroxytetrahydrofuran-3-yl)-3-methoxytetrahydro-2H-pyran-2-carboxamide]  153 nM
5. CO[C@@H]1[C@@H](n2cc(-c3cc(F)c(F)c(F)c3)nn2)[C@@H](O)[C@@H](CO)O[C@H]1C(=O)N(c1cc(F)cc(C#N)c1)[C@@H]1COC[C@H]1O [Example 40, (2R,3R,4S,5R,6R)-N-(3-cyano-5-fluorophenyl)-5-hydroxy-6-(hydroxymethyl)-N-((3R,4S)-4-hydroxytetrahydrofuran-3-yl)-3-methoxy-4-(4-(3,4,5-trifluorophenyl)-1H-1,2,3-triazol-1-yl)tetrahydro-2H-pyran-2-carboxamide]  145 nM
6. CO[C@@H]1[C@@H](n2cc(-c3cc(F)c(F)c(F)c3)nn2)[C@@H](O)[C@@H](CO)O[C@H]1C(=O)N(c1cccc(I)c1)[C@@H]1COC[C@H]1O [Example 32, (2R,3R,4S,5R,6R)-5-hydroxy-6-(hydroxymethyl)-N-((3R,4S)-4-hydroxytetrahydrofuran-3-yl)-N-(3-iodophenyl)-3-methoxy-4-(4-(3,4,5-trifluorophenyl)-1H-1,2,3-triazol-1-yl)tetrahydro-2H-pyran-2-carboxamide]  130 nM
7. CO[C@@H]1[C@@H](n2cc(-c3ccc(Cl)c(Cl)c3)nn2)[C@@H](O)[C@@H](CO)O[C@H]1C(=O)N(c1cc(Br)cc(C#N)c1)[C@H]1COC[C@@H]1O [Example 28, (2R,3R,4S,5R,6R)-N-(3-bromo-5-cyanophenyl)-4-(4-(3,4-dichlorophenyl)-1H-1,2,3-triazol-1-yl)-5-hydroxy-6-(hydroxymethyl)-N-((3S,4R)-4-hydroxytetrahydrofuran-3-yl)-3-methoxytetrahydro-2H-pyran-2-carboxamide]  115 nM
8. COc1cc(C#N)cc(N(C(=O)[C@@H]2O[C@H](CO)[C@H](O)[C@H](n3cc(-c4cc(F)c(F)c(F)c4)nn3)[C@H]2OC)[C@@H]2COC[C@H]2O)c1 [Example 38, (2R,3R,4S,5R,6R)-N-(3-cyano-5-methoxyphenyl)-5-hydroxy-6-(hydroxymethyl)-N-((3R,4S)-4-hydroxytetrahydrofuran-3-yl)-3-methoxy-4-(4-(3,4,5-trifluorophenyl)-1H-1,2,3-triazol-1-yl)tetrahydro-2H-pyran-2-carboxamide]  113 nM
9. CO[C@@H]1[C@@H](n2cc(-c3cc(F)c(F)c(F)c3)nn2)[C@@H](O)[C@@H](CO)O[C@H]1C(=O)N(c1cc(Cl)cc(Cl)c1)[C@@H]1COC[C@H]1O [Example 33, (2R,3R,4S,5R,6R)-N-(3,5-dichlorophenyl)-5-hydroxy-6-(hydroxymethyl)-N-((3R,4S)-4-hydroxytetrahydrofuran-3-yl)-3-methoxy-4-(4-(3,4,5-trifluorophenyl)-1H-1,2,3-triazol-1-yl)tetrahydro-2H-pyran-2-carboxamide]  104 nM
10. CO[C@@H]1[C@@H](n2cc(-c3cc(F)c(F)c(F)c3)nn2)[C@@H](O)[C@@H](CO)O[C@H]1C(=O)N(c1cccc(Br)c1)[C@@H]1COC[C@H]1O [Example 31, (2R,3R,4S,5R,6R)-N-(3-bromophenyl)-5-hydroxy-6-(hydroxymethyl)-N-((3R,4S)-4-hydroxytetrahydrofuran-3-yl)-3-methoxy-4-(4-(3,4,5-trifluorophenyl)-1H-1,2,3-triazol-1-yl)tetrahydro-2H-pyran-2-carboxamide]  103 nM
11. CO[C@@H]1[C@@H](n2cc(-c3cc(F)c(F)c(F)c3)nn2)[C@@H](O)[C@@H](CO)O[C@H]1C(=O)N(c1cc(Cl)cc(C#N)c1)[C@@H]1COC[C@H]1O [Example 34, (2R,3R,4S,5R,6R)-N-(3-chloro-5-cyanophenyl)-5-hydroxy-6-(hydroxymethyl)-N-((3R,4S)-4-hydroxytetrahydrofuran-3-yl)-3-methoxy-4-(4-(3,4,5-trifluorophenyl)-1H-1,2,3-triazol-1-yl)tetrahydro-2H-pyran-2-carboxamide]  102 nM
12. CO[C@@H]1[C@@H](n2cc(-c3ccc(Cl)c(Cl)c3)nn2)[C@@H](O)[C@@H](CO)O[C@H]1C(=O)N(c1cc(Br)cc(Br)c1)[C@H]1COC[C@@H]1O [Example 27, (2R,3R,4S,5R,6R)-N-(3,5-dibromophenyl)-4-(4-(3,4-dichlorophenyl)-1H-1,2,3-triazol-1-yl)-5-hydroxy-6-(hydroxymethyl)-N-((3S,4R)-4-hydroxytetrahydrofuran-3-yl)-3-methoxytetrahydro-2H-pyran-2-carboxamide]  89 nM
13. CO[C@@H]1[C@@H](n2cc(-c3cc(F)c(F)c(F)c3)nn2)[C@@H](O)[C@@H](CO)O[C@H]1C(=O)N(c1cc(Br)cc(Br)c1)[C@@H]1COC[C@H]1O [Example 35, (2R,3R,4S,5R,6R)-N-(3,5-dibromophenyl)-5-hydroxy-6-(hydroxymethyl)-N-((3R,4S)-4-hydroxytetrahydrofuran-3-yl)-3-methoxy-4-(4-(3,4,5-trifluorophenyl)-1H-1,2,3-triazol-1-yl)tetrahydro-2H-pyran-2-carboxamide]  84 nM
14. CO[C@@H]1[C@@H](n2cc(-c3cc(F)c(F)c(F)c3)nn2)[C@@H](O)[C@@H](CO)O[C@H]1C(=O)N(c1cc(C)cc(C#N)c1)[C@@H]1COC[C@H]1O [Example 39, (2R,3R,4S,5R,6R)-N-(3-cyano-5-methylphenyl)-5-hydroxy-6-(hydroxymethyl)-N-((3R,4S)-4-hydroxytetrahydrofuran-3-yl)-3-methoxy-4-(4-(3,4,5-trifluorophenyl)-1H-1,2,3-triazol-1-yl)tetrahydro-2H-pyran-2-carboxamide]  69 nM
15. CO[C@@H]1[C@@H](n2cc(-c3cc(F)c(Cl)c(F)c3)nn2)[C@@H](O)[C@@H](CO)O[C@H]1C(=O)N(c1cc(Br)cc(Br)c1)[C@H]1COC[C@@H]1O [Example 23, (2R,3R,4S,5R,6R)-4-(4-(4-chloro-3,5-difluorophenyl)-1H-1,2,3-triazol-1-yl)-N-(3,5-dibromophenyl)-5-hydroxy-6-(hydroxymethyl)-N-((3S,4R)-4-hydroxytetrahydrofuran-3-yl)-3-methoxytetrahydro-2H-pyran-2-carboxamide]  55 nM
16. CO[C@@H]1[C@@H](n2cc(-c3cc(F)c(Cl)c(F)c3)nn2)[C@@H](O)[C@@H](CO)O[C@H]1C(=O)N(c1cc(Cl)cc(Cl)c1)[C@H]1COC[C@@H]1O [Example 22, (2R,3R,4S,5R,6R)-4-(4-(4-chloro-3,5-difluorophenyl)-1H-1,2,3-triazol-1-yl)-N-(3,5-dichlorophenyl)-5-hydroxy-6-(hydroxymethyl)-N-((3S,4R)-4-hydroxytetrahydrofuran-3-yl)-3-methoxytetrahydro-2H-pyran-2-carboxamide]  50 nM
17. CO[C@@H]1[C@@H](n2cc(-c3ccc(C)c(F)c3F)nn2)[C@@H](O)[C@@H](CO)O[C@H]1C(=O)N(c1cc(C)cc(Br)c1)[C@H]1COC[C@@H]1O [Example 21, (2R,3R,4S,5R,6R)-N-(3-bromo-5-methylphenyl)-4-(4-(2,3-difluoro-4-methylphenyl)-1H-1,2,3-triazol-1-yl)-5-hydroxy-6-(hydroxymethyl)-N-((3S,4R)-4-hydroxytetrahydrofuran-3-yl)-3-methoxytetrahydro-2H-pyran-2-carboxamide]  35 nM
18. CO[C@@H]1[C@@H](n2cc(-c3cc(F)c(Cl)c(F)c3)nn2)[C@@H](O)[C@@H](CO)O[C@H]1C(=O)N(c1cc(C)cc(Br)c1)[C@H]1COC[C@@H]1O [Example 25, (2R,3R,4S,5R,6R)-N-(3-bromo-5-methylphenyl)-4-(4-(4-chloro-3,5-difluorophenyl)-1H-1,2,3-triazol-1-yl)-5-hydroxy-6-(hydroxymethyl)-N-((3S,4R)-4-hydroxytetrahydrofuran-3-yl)-3-methoxytetrahydro-2H-pyran-2-carboxamide]  31 nM
